Test results published in US8618094B2, “Fused substituted aminopyrrolidine derivative” (Daiichi Sankyo Company, Limited, priority 2007, dated 2013).
In brackets after ≈: the same amount, converted by molar mass. Like-named read-outs stand apart in the source and are kept apart here.

Legend:
S. aureus 870307 = assay: Antibacterial activity (MIC), standard method of the Japanese Society of Chemotherapy; assay type: cell-based; conditions: Staphylococcus aureus
Description: (§1) Antibacterial activity of the compounds of the present invention was measured in accordance with the standard method specified by the Japanese Society of Chemotherapy.

S. aureus FDA 209-P = assay: as above; assay type: cell-based; conditions: Staphylococcus aureus, FDA209
Description: as §1

S. pneumoniae 104835 = assay: as above; assay type: cell-based; conditions: Streptococcus pneumoniae
Description: as §1

S. marcescens 10100 = assay: as above; assay type: cell-based; conditions: Serratia marcescens
Description: as §1

H. influenzae ATCC49247 = assay: as above; assay type: cell-based; conditions: Haemophilus influenzae
Description: as §1

K. pneumoniae TYPE 1 = assay: as above; assay type: cell-based; conditions: Klebsiella pneumoniae, TYPE1
Description: as §1

E. cloacae 03400 = assay: as above; assay type: cell-based; conditions: Enterobacter cloacae
Description: as §1

[1] = system: M(B). Caterrhalis ATCC25238; assay: as above; assay type: cell-based
Description: as §1

P. aeruginosa PAO1 = assay: as above; assay type: cell-based; conditions: Pseudomonas aeruginosa
Description: as §1

E. faecalis 19433 = assay: as above; assay type: cell-based; conditions: Enterococcus faecalis
Description: as §1

S. epidermidis 56500 = assay: as above; assay type: cell-based; conditions: Staphylococcus epidermidis
Description: as §1

P. mirabilis 08103 = assay: as above; assay type: cell-based; conditions: Proteus mirabilis
Description: as §1

[2] = system: S. pyogenes JCM5674(ATCC12344); assay: as above; assay type: cell-based; conditions: Streptococcus pyogenes
Description: as §1

S. pneumoniae J24 = assay: as above; assay type: cell-based; conditions: Streptococcus pneumoniae
Description: as §1

E. coli NIHJ = assay: as above; assay type: cell-based; conditions: Escherichia coli
Description: as §1

[3] = Mouse phototoxicity test after intravenous administration; assay type: in vivo
mouse bone marrow = assay: Mouse bone marrow micronucleus test after intravenous administration; assay type: in vivo
Text: The compound represented by the formula 365 was confirmed to be positive for induction of micronuclei in a mouse bone marrow micronucleus test after intravenous administration.

[4] = H. influenzae ATCC49247 (first half of Table 2), read-out: MIC, H. influenzae ATCC49247
[5] = M(B). Caterrhalis ATCC25238 (first half of Table 2), read-out: MIC, M(B). Caterrhalis ATCC25238

COc1c(N2C[C@]3(N)CCC[C@]3(F)C2)c(F)cc2c(=O)c(C(=O)O)cn([C@@H]3C[C@@H]3F)c12 [Example 15, 7-[(1R,5S)-1-Amino-5-fluoro-3-azabicyclo[3.3.0]octan-3-yl]-6-fluoro-1-[(1R,2S)-2-fluorocyclopropan-1-yl]-1,4-dihydro-8-methoxy-4-oxoquinoline-3-carboxylic acid]
MIC (S. aureus 870307): 0.39 µg/mL (≈ 0.892 µM)
MIC (S. aureus FDA 209-P): 0.012 µg/mL (≈ 0.0274 µM)
MIC (S. pneumoniae 104835): 0.39 µg/mL (≈ 0.892 µM)
MIC (S. marcescens 10100): 0.2 µg/mL (≈ 0.457 µM)
MIC (H. influenzae ATCC49247; [4]): ≤ 0.003 µg/mL
MIC (K. pneumoniae TYPE 1): 0.05 µg/mL (≈ 0.114 µM)
MIC (E. cloacae 03400): 0.025 µg/mL (≈ 0.0572 µM)
MIC [1, 5]: 0.025 µg/mL (≈ 0.0572 µM)
MIC (P. aeruginosa PAO1): 0.78 µg/mL (≈ 1.78 µM)
MIC (E. faecalis 19433): 0.2 µg/mL (≈ 0.457 µM)
MIC (S. epidermidis 56500): 0.05 µg/mL (≈ 0.114 µM)
MIC (P. mirabilis 08103): 0.025 µg/mL (≈ 0.0572 µM)
MIC [2]: 0.05 µg/mL (≈ 0.114 µM)
MIC (S. pneumoniae J24): 0.05 µg/mL (≈ 0.114 µM)
MIC (E. coli NIHJ): 0.006 µg/mL (≈ 0.0137 µM)
melting point: 191 to 195 °C (dec.)

COc1c(N2C[C@H]3CC=C[C@@]3(N)C2)c(F)cc2c(=O)c(C(=O)O)cn([C@@H]3C[C@@H]3F)c12 [Example 24, 7-[(1S,5R)-1-Amino-3-azabicyclo[3.3.0]oct-7-en-3-yl]-6-fluoro-1-[(1R,2S)-2-fluorocyclopropyl]-8-methoxy-1,4-dihydro-4-oxoquinoline-3-carboxylic acid]
MIC (S. aureus 870307): 0.78 µg/mL (≈ 1.87 µM)
MIC (S. aureus FDA 209-P): 0.025 µg/mL (≈ 0.0599 µM)
MIC (S. pneumoniae 104835): 0.39 µg/mL (≈ 0.934 µM)
MIC (S. marcescens 10100): 0.2 µg/mL (≈ 0.479 µM)
MIC (H. influenzae ATCC49247; [4]): 0.006 µg/mL (≈ 0.0144 µM)
MIC (K. pneumoniae TYPE 1): 0.1 µg/mL (≈ 0.24 µM)
MIC (E. cloacae 03400): 0.025 µg/mL (≈ 0.0599 µM)
MIC [1, 5]: 0.05 µg/mL (≈ 0.12 µM)
MIC (P. aeruginosa PAO1): 0.39 µg/mL (≈ 0.934 µM)
MIC (E. faecalis 19433): 0.1 µg/mL (≈ 0.24 µM)
MIC (S. epidermidis 56500): 0.1 µg/mL (≈ 0.24 µM)
MIC (P. mirabilis 08103): 0.025 µg/mL (≈ 0.0599 µM)
MIC [2]: 0.1 µg/mL (≈ 0.24 µM)
MIC (S. pneumoniae J24): 0.05 µg/mL (≈ 0.12 µM)
MIC (E. coli NIHJ): 0.025 µg/mL (≈ 0.0599 µM)
melting point: 206 to 208 °C

COc1c(N2C[C@H]3C4(CC4)C[C@@]3(N)C2)c(F)cc2c(=O)c(C(=O)O)cn([C@@H]3C[C@@H]3F)c12 [Example 10, 7-[(1S,5R)-1-Amino-6-spirocyclopropane-3-azabicyclo[3.2.0]heptan-3-yl]-1-[(1R,2S)-2-fluorocyclopropyl]-6-fluoro-1,4-dihydro-8-methoxy-4-oxoquinoline-3-carboxylic acid]
MIC (S. aureus 870307): 0.1 µg/mL (≈ 0.232 µM)
MIC (S. aureus FDA 209-P): 0.006 µg/mL (≈ 0.0139 µM)
MIC (S. pneumoniae 104835): 0.2 µg/mL (≈ 0.464 µM)
MIC (S. marcescens 10100): 0.2 µg/mL (≈ 0.464 µM)
MIC (H. influenzae ATCC49247; [4]): 0.012 µg/mL (≈ 0.0278 µM)
MIC (K. pneumoniae TYPE 1): 0.2 µg/mL (≈ 0.464 µM)
MIC (E. cloacae 03400): 0.025 µg/mL (≈ 0.0579 µM)
MIC [1, 5]: 0.025 µg/mL (≈ 0.0579 µM)
MIC (P. aeruginosa PAO1): 0.78 µg/mL (≈ 1.81 µM)
MIC (E. faecalis 19433): 0.1 µg/mL (≈ 0.232 µM)
MIC (S. epidermidis 56500): 0.025 µg/mL (≈ 0.0579 µM)
MIC (P. mirabilis 08103): 0.05 µg/mL (≈ 0.116 µM)
MIC [2]: 0.025 µg/mL (≈ 0.0579 µM)
MIC (S. pneumoniae J24): 0.025 µg/mL (≈ 0.0579 µM)
MIC (E. coli NIHJ): 0.025 µg/mL (≈ 0.0579 µM)
melting point: 182 to 203 °C (dec.)

Cc1c(N2C[C@@H]3CCOC[C@@]3(N)C2)c(F)cc2c(=O)c(C(=O)O)cn([C@@H]3C[C@@H]3F)c12 [Example 44, 7-[(1S,6S)-1-Amino-3-oxa-8-azabicyclo[4,3,0]nonan-8-yl]-6-fluoro-1-[(1R,2S)-2-fluorocyclopropyl]-1,4-dihydro-8-methyl-4-oxoquinoline-3-carboxylic acid]
MIC (S. aureus 870307): 0.2 µg/mL (≈ 0.477 µM)
MIC (S. aureus FDA 209-P): 0.012 µg/mL (≈ 0.0286 µM)
MIC (S. pneumoniae 104835): 0.39 µg/mL (≈ 0.93 µM)
MIC (S. marcescens 10100): 0.05 µg/mL (≈ 0.119 µM)
MIC (H. influenzae ATCC49247; ATCC 25238 / ATCC 49247, H. influenzae ATCC25238 as printed (second half of Table 2), read-out: MIC, H. influenzae ATCC25238): ≤ 0.003 µg/mL
MIC (K. pneumoniae TYPE 1): 0.025 µg/mL (≈ 0.0596 µM)
MIC (E. cloacae 03400): 0.006 µg/mL (≈ 0.0143 µM)
MIC ([1]; M(B). Caterrhalis [sic] ATCC49247 (Table 2), read-out: MIC, M(B). Caterrhalis ATCC49247): 0.006 µg/mL (≈ 0.0143 µM)
MIC (P. aeruginosa PAO1): 0.39 µg/mL (≈ 0.93 µM)
MIC (E. faecalis 19433): 0.1 µg/mL (≈ 0.238 µM)
MIC (S. epidermidis 56500): 0.025 µg/mL (≈ 0.0596 µM)
MIC (P. mirabilis 08103): 0.025 µg/mL (≈ 0.0596 µM)
MIC [2]: 0.05 µg/mL (≈ 0.119 µM)
MIC (S. pneumoniae J24): 0.05 µg/mL (≈ 0.119 µM)
MIC (E. coli NIHJ): ≤ 0.003 µg/mL
melting point: 159 to 161 °C

N[C@@]12CCC[C@@H]1CN(c1c(F)cc3c(=O)c(C(=O)O)cn(C4CC4)c3c1F)C2 [formula 365, reference compound]
phototoxicity [3]: positive
induction of micronuclei (mouse bone marrow): positive
